Where two headings read alike, the source gives them in different places.
Columns and labels:
[1] = Hepatocyte stability assay, human; format: in vitro ADME; settings: human hepatocytes, 1 μM
Description: BioreclamationIVT (Baltimore, MD) provided the cryopreserved hepatocytes, hepatocyte thawing (HT) medium, and Krebs-Henseleit buffer (KHB) medium. The stock solution concentration was 1 M in DMSO and was then diluted further in acetonitrile/water (1:1 v/v). All other chemicals were purchased from Sigma-Aldrich (St. Louis, MO) or Thermo Fisher Scientific (Waltham, MA).
The quench solution used to stop reactions in the hepatocyte incubations was comprised of 100% (v/v) acetonitrile. Internal Standard/Quench (IS/Q) solution used to stop reactions with the positive control also contained 200 nM Labetalol.
Metabolic Stability in Cryopreserved Hepatocytes: Test compounds, or the positive control metabolic substrate, was incubated in suspensions of cryopreserved hepatocytes at a final concentration of 1 μM. Vials containing cryopreserved hepatocytes were removed from liquid nitrogen and immediately immersed in a 37° C. water bath. The vials were swirled gently until the contents had thawed. They were then immediately emptied into 48 mL of pre-warmed thawing medium in a 50 mL conical tube. Cells remaining in the vial were re-suspended with 1.0 mL of pre-warmed thawing medium and added to the conical tube. The tube was capped and then gently inverted several times to re-suspend the hepatocytes. The cell suspension was centrifuged at 500×g for 10 minutes at room temperature and the supernatant discarded. The cell pellet was loosened by gently swirling the centrifuge tube. Non-supplemented KHB medium was added to obtain the appropriate target cell density. The viabilities of all cell preparations were ≥85%, assessed by Trypan blue dye exclusion.
For incubations, aliquots of hepatocyte suspension (250 μL containing a cell concentration of 2×10^6 cells/mL) were added to 250 μL of 2 μM substrate (test compound or positive control) in supplemented KHB in duplicate wells in a 24-well plate. Final concentration in the incubations were 1×10^6 cells/mL and 1 μM substrate. A cell-free control incubation (KHB only) was also included. The incubations were carried out with gentle shaking in a 37° C. incubator under a humid atmosphere of 95% air/5% CO2 (v/v). Aliquots (100 μL) were removed after 0, 1, 3, and 6 hours and added to 200 μL quenching solution. The samples were then placed on a shaker for 10 min followed by centrifugation at 3000×g for 20 min. The supernatant was transferred to a new plate and diluted with 100 μL of water to reduce the organic content and then placed on a shaker for 10 mins. Samples were injected and analyzed with methods described below.
Liquid Chromatography: Quantification of positive control and test compound was performed by analyte/internal standard peak area ratios (PAR) measured on a Thermo Scientific™ Q Exactive™ Hybrid Quadrupole-Orbitrap Mass Spectrometer MS/MS with an electrospray interface operating in positive ion mode. The mass spectrometer was coupled to a Dionex Ultimate® 3000 HPLC system. Samples (10 μL aliquots) were injected with a Leap Technologies HTC PAL autosampler. For positive control, the column used was a Thermo Scientific™ Hypersil GOLD™ HPLC column ([…], 50×2.1 mm). Mobile phase A consisted of 95% (v/v) water, 5% (v/v) acetonitrile, and contained 0.1% (v/v) formic acid (FA). Mobile phase B consisted of 95% (v/v) acetonitrile, 5% (v/v) water, and contained 0.1% (v/v) FA. Elution was achieved, at a flow rate of 0.5 mL/min, by a series of linear gradients: initial condition was 5% B at 0 min, isocratic for 20 seconds; then linear gradient to 95% B over 90 seconds, followed by isocratic for 60 seconds at 95% B, and re-equilibrated to initial conditions over 70 seconds.
Metabolic stabilities of positive control and test compound were determined by measuring the rates of disappearance of the parent with time by determining the % of parent remaining at time t (Ct) {Obach 1997}.
Data (% of parent remaining) were plotted on a semi-log scale and fitted using an exponential fit: […]

[2] = MDR1/BCRP assay: permeability in cPgp-KO-MDCK-WT cells; format: in vitro ADME; settings: dog, pH 7.4
Procedure, shortened: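 Compounds at 1 μM were dosed apically or basolaterally on 5-day confluent cPgp-KO-MDCK monolayers, HBSS/HEPES/glucose pH 7.4 donor and receiver with 1% BSA, duplicate wells. Receiver samples at 2 h were analysed by LC-MS/MS to give A→B and B→A Papp plus % recovery; TEER confirmed integrity.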

[3] = PK data (IV/PO) in cynomolgus monkey; settings: in vivo; for clearance: read-out: Observed CL (converted); for Vd: read-out: Vss; for bioavailability: PO 0.5 mg/Kg
[4] = test system: BxPC-3 (pancreas, adenocarcinoma; MTAP-Deleted); assay: In vitro cell viability assay (CellTiter-Glo, 9 days), BxPC-3; format: cell-based; settings: Homo sapiens, BXPC-3, 216 h, 9-day treatment
Description: Some Compounds of the Disclosure were tested in Calu-6 (Vendor: ATCC; Cat #HTB-56; Description: lung, adenocarcinoma), LU99 (Vendor: JCRB; Cat #JCRB0080; Description: lung, giant cell carcinoma), SW780 (Vendor: ATCC; Cat #CRL-2169; Description: bladder, urothelial carcinoma), and BxPC-3 (Vendor: ATCC; Cat #CRL-1687; Description: pancreas, adenocarcinoma) cellular viability assays according to the general protocol. Seeded cells into 96-well plate and incubated overnight. Seeded an additional 10 wells per cell line in an additional 96-well plate for assessing Time Zero luminescence and incubated overnight. To treatment plates, added compounds into each well using Tecan D300e dispenser (nine three-fold dilutions starting at […]) and incubated for 9 days. Time Zero (no compound treatment, luminescence assessed on day 1) and 9-day treatment (luminescence assessed on day 10) plates were assessed using the same CellTiter-Glo® substrate protocol. Thawed CellTiter-Glo® Buffer and lyophilized CellTiter-Glo® substrate and equilibrated to room temperature prior to use. Transferred 100 ml CellTiter-Glo® Buffer into amber bottle containing CellTiter-Glo® substrate to reconstitute the lyophilized enzyme/substrate mixture. For Time Zero and 9-day treatment plates, removed all plating media. Added 100 μl fresh media/well. Added 100 μl CellTiter-Glo® Reagent per well. Mixed contents for 10 min on an orbital shaker to lyse cells. Recorded luminescence with Perkin Elmer Envision 2105 machine. Analyzed the data with GraphPad software.

Structure (SMILES)	Human Predicted Hepatocyte CL [1] [L/h/kg]	Papp A→B at 2 h, 1 µM [2] [×10⁻⁶ cm/s]	other results
C[C@H]1CN(C(=O)c2cc3c(cc2F)nc(N)c2cncn23)[C@H]2c3ccc(C(F)(F)F)cc3C[C@H]2O1 (single isomer, unassigned) [Ff-81]	0.18	10.5	half-life ([3]; IV 0.5 mg/Kg): 960 min; clearance ([3]; IV 0.5 mg/Kg): 3 mL/min/kg; Vd ([3]; IV 0.5 mg/Kg): 1.77 L/kg; bioavailability [3]: 123%
Nc1nc2cc(F)c(C(=O)N3CCO[C@@H]4Cc5cc(C(F)(F)F)ccc5[C@@H]43)cc2n2cncc12 (single isomer, unassigned) [Ff-82]	0.26	8.8	
C[C@H]1CN(C(=O)c2cc3c(cc2F)nc(N)c2cncn23)[C@H]2c3cc(F)c(C(F)F)cc3C[C@H]2O1 (single isomer, unassigned) [Ff-173]	0.18	14.3	
C[C@@H]1CN(C(=O)c2cc3c(cc2F)nc(N)c2cncn23)[C@H]2c3ccc(OC(F)(F)F)cc3C[C@H]2O1 (single isomer, unassigned) [Ff-183]	0.18	10.3	GI50 [4]: 12 nM
C[C@@H]1CN(C(=O)c2cc3c(cc2F)nc(N)c2cncn23)[C@H]2c3cc(F)c(OC(F)(F)F)cc3C[C@H]2O1 (single isomer, unassigned) [Ff-197]	0.25	16	
Nc1nc2cc(F)c(C(=O)N3CCC[C@@H]4Oc5cc(C(F)(F)F)ccc5[C@@H]43)cc2n2cncc12 [Ff-104, (4-amino-7-fluoroimidazo[1,5-a]quinoxalin-8-yl)((4aS,9bS)-7-(trifluoromethyl)-3,4,4a,9b-tetrahydrobenzofuro[3,2-b]pyridin-1(2H)-yl)methanone]	0.5		half-life ([3]; IV 0.25 mg/Kg): 624 min; clearance ([3]; IV 0.25 mg/Kg): 1.67 mL/min/kg; Vd ([3]; IV 0.25 mg/Kg): 1.47 L/kg; half-life ([3]; IV 0.5 mg/Kg): 660 min; clearance ([3]; IV 0.5 mg/Kg): 3.17 mL/min/kg; Vd ([3]; IV 0.5 mg/Kg): 1.7 L/kg; bioavailability [3]: 108%
Nc1nc2cnc(C(=O)N3CCC[C@@H]4Oc5c(ccc(C(F)(F)F)c5F)[C@@H]43)cc2n2cncc12 [Ff-109, (4-aminoimidazo[1,5-a]pyrido[3,4-e]pyrazin-8-yl)((4aS,9bS)-6-fluoro-7-(trifluoromethyl)-3,4,4a,9b-tetrahydrobenzofuro[3,2-b]pyridin-1(2H)-yl)methanone]	0.14	12.2	
Nc1nc2cnc(C(=O)N3CCC[C@@H]4Oc5cc(C(F)(F)F)ccc5[C@@H]43)cc2n2cncc12 [Ff-110, (4-aminoimidazo[1,5-a]pyrido[3,4-e]pyrazin-8-yl)((4aS,9bS)-7-(trifluoromethyl)-3,4,4a,9b-tetrahydrobenzofuro[3,2-b]pyridin-1(2H)-yl)methanone]	0.22	12.1	GI50 [4]: 7 nM
Nc1nc2cnc(C(=O)N3CC[C@H]4C[C@@H]3c3ccc(C(F)(F)F)cc3O4)cc2n2cncc12 [Ff-367, (4-aminoimidazo[1,5-a]pyrido[3,4-e]pyrazin-8-yl)((2S,6R)-9-(trifluoromethyl)-3,4-dihydro-2H-2,6-methanobenzo[b][1,5]oxazocin-5(6H)-yl)methanone]	0.16	13.7	

Second part, led by results:

Human Predicted Hepatocyte CL [1] [L/h/kg]	Papp A→B at 2 h, 1 µM [2] [×10⁻⁶ cm/s]	Structure (SMILES)	other results
0.21	19.7	Nc1nc2cnc(C(=O)N3CC[C@H]4C[C@@H]3c3c(F)cc(C(F)(F)F)cc3O4)cc2n2cncc12 (single isomer, unassigned) [Ff-694]	
0.25	17.8	Cc1ncn2c1c(N)nc1cnc(C(=O)N3CCC[C@@H]4Oc5cc(C(F)(F)F)ccc5[C@@H]43)cc12 [Ff-499, (4-amino-3-methylimidazo[1,5-a]pyrido[3,4-e]pyrazin-8-yl)((4aS,9bS)-7-(trifluoromethyl)-3,4,4a,9b-tetrahydrobenzofuro[3,2-b]pyridin-1(2H)-yl)methanone]	half-life ([3]; IV 0.33 mg/Kg): 83.4 min; clearance ([3]; IV 0.33 mg/Kg): 24.5 mL/min/kg; Vd ([3]; IV 0.33 mg/Kg): 1.93 L/kg
0.34	10.9	Nc1nc2cnc(C(=O)N3CC4(CC4)C[C@@H]4Oc5cc(C(F)(F)F)ccc5[C@@H]43)cc2n2cncc12 [Ff-648, (4-aminoimidazo[1,5-a]pyrido[3,4-e]pyrazin-8-yl)((4aS,9bS)-7-(trifluoromethyl)-4a,9b-dihydro-2H-spiro[benzofuro[3,2-b]pyridine-3,1′-cyclopropan]-1(4H)-yl)methanone]	GI50 [4]: 8 nM
0.16	10.7	Nc1nc2cnc(C(=O)N3CC[C@H]4C[C@@H]3c3ccc(C(F)(F)F)c(F)c3O4)cc2n2cncc12 [Ff-684, (4-aminoimidazo[1,5-a]pyrido[3,4-e]pyrazin-8-yl)((2S,6R)-10-fluoro-9-(trifluoromethyl)-3,4-dihydro-2H-2,6-methanobenzo[b][1,5]oxazocin-5(6H)-yl)methanone]	
0.29	11.2	Nc1nc2cnc(C(=O)N3CC[C@H]4C[C@@H]3c3ccc(OC(F)(F)F)cc3O4)cc2n2cncc12 [Ff-685, (4-aminoimidazo[1,5-a]pyrido[3,4-e]pyrazin-8-yl)((2S,6R)-9-(trifluoromethoxy)-3,4-dihydro-2H-2,6-methanobenzo[b][1,5]oxazocin-5(6H)-yl)methanone]	
0.21	7	[2H]C1([2H])CC[C@@H]2Oc3cc(C(F)(F)F)ccc3[C@@H]2N1C(=O)c1cc2c(cn1)nc(N)c1cncn12 [Fg-60, (4-aminoimidazo[1,5-a]pyrido[3,4-e]pyrazin-8-yl)((4aS,9bS)-7-(trifluoromethyl)-3,4,4a,9b-tetrahydrobenzofuro[3,2-b]pyridin-1(2H)-yl-2,2-d2)methanone]	

From patent US12448388B2, “PRMT5 inhibitors and uses thereof” (Gilead Sciences, Inc., priority 2023, dated 2025)
